Data set [1] concerns the target High affinity 3',5'-cyclic-AMP phosphodiesterase 7A (Homo sapiens, UniProt Q13946). The data set can be described thus: Inhibition of human PDE7A1 expressed in insect cells assessed as inhibition of [3H]cAMP to [3H]AMP hydrolysis after 30 mins by scintillation counting.
Data set [2] has as its target 3',5'-cyclic-AMP phosphodiesterase 4B (Homo sapiens, UniProt Q07343). The data set can be described thus: Inhibition of human PDE4B1 expressed in insect cells assessed as inhibition of [3H]cAMP to [3H]AMP hydrolysis after 30 mins by scintillation counting.
Another data set concerns Lymphocyte. The data set is described as follows: Inhibition of IL2 production in activated mouse lymphocytes after 3 hrs by ELISA. In kind it is functional, cell-based.
Data set [3] has as its system Liver microsome. The data set can be described thus: Stability in human liver microsomes. In kind it is ADME.
Data set [4] deals with Liver microsome. The data set is described as follows: Stability in rat liver microsomes. In kind it is ADME.
A short description of data set [5]: Permeability of the compound by PAMPA. The format is ADME.

Chain of High affinity 3',5'-cyclic-AMP phosphodiesterase 7A (Q13946 whole entry): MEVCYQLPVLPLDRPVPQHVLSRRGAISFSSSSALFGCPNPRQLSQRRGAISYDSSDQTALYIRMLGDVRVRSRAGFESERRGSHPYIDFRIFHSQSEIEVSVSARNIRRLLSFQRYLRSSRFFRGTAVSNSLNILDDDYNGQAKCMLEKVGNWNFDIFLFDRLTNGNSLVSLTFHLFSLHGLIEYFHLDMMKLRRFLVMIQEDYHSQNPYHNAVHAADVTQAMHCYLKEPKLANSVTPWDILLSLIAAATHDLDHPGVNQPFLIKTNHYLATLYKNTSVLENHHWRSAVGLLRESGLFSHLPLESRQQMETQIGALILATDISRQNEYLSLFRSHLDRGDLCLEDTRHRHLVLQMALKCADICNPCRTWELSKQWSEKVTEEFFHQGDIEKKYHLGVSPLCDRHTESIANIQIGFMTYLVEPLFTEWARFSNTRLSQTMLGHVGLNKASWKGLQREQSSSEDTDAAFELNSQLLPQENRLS
Chain of 3',5'-cyclic-AMP phosphodiesterase 4B (Q07343 whole entry): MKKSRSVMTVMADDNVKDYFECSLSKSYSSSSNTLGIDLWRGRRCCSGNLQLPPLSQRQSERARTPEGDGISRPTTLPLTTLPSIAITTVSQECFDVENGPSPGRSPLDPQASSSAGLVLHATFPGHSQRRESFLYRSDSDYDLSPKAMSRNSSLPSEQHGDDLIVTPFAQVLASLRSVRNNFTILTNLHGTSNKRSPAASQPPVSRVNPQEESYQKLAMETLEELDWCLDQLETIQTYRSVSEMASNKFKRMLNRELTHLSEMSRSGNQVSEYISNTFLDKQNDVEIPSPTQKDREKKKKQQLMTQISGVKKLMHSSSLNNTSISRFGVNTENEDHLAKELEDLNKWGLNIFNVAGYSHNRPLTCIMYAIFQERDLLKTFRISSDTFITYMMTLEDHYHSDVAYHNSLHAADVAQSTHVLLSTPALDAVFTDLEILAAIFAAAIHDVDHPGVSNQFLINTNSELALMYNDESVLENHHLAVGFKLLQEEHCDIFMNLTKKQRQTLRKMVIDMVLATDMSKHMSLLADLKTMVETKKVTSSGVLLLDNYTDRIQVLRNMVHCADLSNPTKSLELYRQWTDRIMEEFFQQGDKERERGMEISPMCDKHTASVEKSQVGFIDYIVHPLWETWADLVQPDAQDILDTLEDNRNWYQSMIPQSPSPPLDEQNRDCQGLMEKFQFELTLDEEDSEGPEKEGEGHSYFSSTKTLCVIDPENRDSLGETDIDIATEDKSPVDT

As to `CCn1c(NC2CCCC2)nc2cc(C)sc2c1=O`, the 50% inhibitory concentration (IC50) in data set [1] came to 11000 nM.

As for `CCn1c(NC2CCCC2)nc2c(CCc3cccnc3)csc2c1=O`, the concentration for half-maximal inhibition (IC50) in data set [1] was 7.3 nM; in data set [2], 1100 nM; in the data set with Lymphocyte, 1000 nM.

Turning to `CCn1c(NC2CCCC2)nc2c(-c3ccccc3C(=O)OC)csc2c1=O`, the half-inhibitory concentration (IC50) worked out at 380 nM in data set [1], 3800 nM in data set [2] and 9100 nM in the data set with Lymphocyte.

Regarding `C=CCNc1nc2ccsc2c(=O)n1C`, the half-inhibitory concentration (IC50) in data set [1] turned out to be 5000 nM.

Turning to `C=CCNc1nc2cc(-c3ccccc3)sc2c(=O)n1C`, in data set [1], the concentration for half-maximal inhibition (IC50) amounted to 6800 nM.

For the compound `CCn1c(NC2CCCC2)nc2c(C#Cc3cccnc3)csc2c1=O`, the 50% inhibitory concentration (IC50) in data set [1] came to 4.2 nM; in data set [2], 1400 nM; with Lymphocyte it was 1300 nM.

For `C=CCNc1nc2cc(-c3cccc(C(=O)NCCO)c3)sc2c(=O)n1C`, the IC50 in data set [1] worked out at 1100 nM.

For the compound `CCn1c(NC2CCCC2)nc2c(C#N)csc2c1=O`, the IC50 in data set [1] stood at 67 nM; in data set [2], 3200 nM; with Lymphocyte, 890 nM.

Regarding `CCn1c(NC2CCCC2)nc2c(-c3cccc(C(=O)OC)c3)csc2c1=O`, the IC50 in data set [1] stood at 5 nM; in data set [2], 480 nM; with Lymphocyte, 290 nM.

As for `C=CCNc1nc2cc(-c3ccc(N4CCN(C(C)C)CC4)cc3)sc2c(=O)n1C`, the concentration for half-maximal inhibition (IC50) in data set [1] was 160 nM.

Regarding `CCn1c(NC2CCCC2)nc2c(-c3ccc(CN4CCOCC4)cc3)csc2c1=O`, the IC50 in data set [1] is 2.3 nM; in data set [2] it was 640 nM; with Lymphocyte, 1000 nM. For the same compound, the Stability entry in the data set on Liver microsome [3] and in the data set on Liver microsome [4] was “Unstable” in each case. The permeability result in data set [5] is recorded as “permeable”.

Consider `CCn1c(NC2CCCC2)nc2c(N3CCN(C(=O)OC(C)(C)C)CC3=O)csc2c1=O`, for which the 50% inhibitory concentration (IC50) in data set [1] was determined as 12 nM; in data set [2], 3300 nM; in the data set on Lymphocyte it was 3000 nM.

For `CCn1c(NC2CCCC2)nc2c(-c3ccccc3)csc2c1=O`, the IC50 in data set [1] was 5.6 nM; in data set [2], 720 nM; in the data set on Lymphocyte, 1800 nM.

For `CCn1c(NC2CCCC2)nc2c(C#CCN3CCOCC3)csc2c1=O`, the IC50 in data set [1] was determined as 19 nM; in data set [2], 820 nM; in the data set with Lymphocyte, 1700 nM.

Consider `C=CCNc1nc2cc(-c3ccc(C(=O)NCCCN(C)C)cc3)sc2c(=O)n1C`, for which the IC50 in data set [1] was found to be 310 nM.

`CCn1c(NC2CCCCC2)nc2ccsc2c1=O`: the concentration for half-maximal inhibition (IC50) in data set [1] was found to be 740 nM.

`CCn1c(NC2CCCC2)nc2cc(C(=O)Nc3ccc(N4CCC(O)CC4)nc3)sc2c1=O`: the IC50 in data set [1] was determined as 2600 nM.

On to `CCn1c(NC2CCCC2)nc2c(C)csc2c1=O`, for which the 50% inhibitory concentration (IC50) was 98 nM in data set [1], 3800 nM in data set [2] and > 3000 nM in the data set on Lymphocyte.

`C=Cc1csc2c(=O)n(CC)c(NC3CCCC3)nc12`: the IC50 in data set [1] was determined as 30 nM; in data set [2] it was 3700 nM; with Lymphocyte, 980 nM.

Turning to `CCn1c(NC2CCCC2)nc2cc(CNc3cccnc3)sc2c1=O`, the IC50 was > 1000 nM in data set [1] and 920 nM in data set [2].

For `CCc1cc2nc(NC3CCCC3)n(CC)c(=O)c2s1`, the half-maximal inhibitory concentration (IC50) in data set [1] amounted to 6500 nM; in data set [2] it was 3500 nM.

In the case of `CCn1c(NC2CCCC2)nc2ccsc2c1=O`, the half-inhibitory concentration (IC50) in data set [1] was determined as 150 nM; in data set [2] it was 4900 nM; in the data set on Lymphocyte, 5400 nM.

Regarding `CCn1c(NC2CCCC2)nc2c(-c3ccc(N4CCOCC4)nc3)csc2c1=O`, the figures for the IC50 (in data set [2]; in the data set with Lymphocyte) were 520 nM and 77 nM, respectively. The Stability result in the data set with Liver microsome [3] and with Liver microsome [4] was “Unstable” in each case. In data set [5], the permeability entry is “permeable”.

Consider `CCn1c(NC2CCCC2)nc2c(-c3ccc(C(=O)OC)cc3)csc2c1=O`, for which the IC50 in data set [1] was 4.9 nM; in data set [2] it was 1000 nM; in the data set with Lymphocyte, 1300 nM.

As to `CCn1c(NC2CCCC2)nc2c(CCCN3CCOCC3)csc2c1=O`, the IC50 was found to be 39 nM in data set [1], 3400 nM in data set [2] and 2000 nM in the data set with Lymphocyte.

As for `CCc1csc2c(=O)n(CC)c(NC3CCCC3)nc12`, the concentration for half-maximal inhibition (IC50) amounted to 42 nM in data set [1], 5900 nM in data set [2] and 2900 nM in the data set with Lymphocyte.

With `CCn1c(NC2CCCC2)nc2c(-c3cccnc3)csc2c1=O`, the IC50 in data set [1] was found to be 2 nM; in data set [2] it was 380 nM; in the data set with Lymphocyte it was 89 nM. The Stability entry in the data set with Liver microsome [3] and with Liver microsome [4] was “Unstable” throughout. The permeability result in data set [5] is reported as “permeable”.

On to `C#Cc1csc2c(=O)n(CC)c(NC3CCCC3)nc12`, for which the IC50 in data set [2] amounted to 3000 nM; with Lymphocyte, 560 nM.
